Results from ChEMBL document CHEMBL5154702, “Synthesis and biological evaluation of aminobenzamides containing purine moiety as class I histone deacetylases inhibitors” (Bioorg Med Chem, 2022).
The source made the active and inactive calls. The rule behind the calls is not given here.

Experiments:
HCT-116 [1] = experiment: Cell cycle arrest in human HCT-116 cells assessed as accumulation of cells at G2/M phase at 10 uM measured after 12 hrs by propidium iodide staining based flow cytometry (reference value: 22.74%); format: functional
HCT-116 [2] = experiment: Induction of apoptosis in human HCT-116 cells assessed as necrotic cells at 0.5 uM measured after 24 hrs by Annexin V-FITC/propidium iodide staining based flow cytometry (reference value: 7.39%); format: functional
HCT-116 [3] = experiment: Induction of cell morphological changes in human HCT-116 cells assessed as cell shrinkage at 0.5 to 5 uM measured after 24 hrs by phase contrast microscopy; format: functional, cell-based; conditions: dose 0.5-5 µM
HCT-116 [4] = experiment: Cell cycle arrest in human HCT-116 cells assessed as down regulation of cyclin D1 expression at 5 uM by Western blot analysis; format: functional, cell-based; conditions: time 6-48 hrs, TDE = time-dependent effect
[5] = Half life in rat liver microsomes at 13.8 uM by HPLC analysis; format: ADME, Microsome
[6] = target: T1, Histone deacetylase 1/2/3 (Homo sapiens) (UniProt Q13547+O15379+Q92769); experiment: Inhibition of HDAC1/HDAC2/HDAC3 in human HCT-116 cells assessed as increase in accumulation of acetylated H4K5 measured after 24 hrs by Western blot analysis; format: cell-based; conditions: dose 0.1-10 µM, DDE = dose-dependent effect
[7] = Half life in human liver microsomes at 13.8 uM by HPLC analysis; format: ADME, Microsome
HCT-116 [8] = experiment: Cell cycle arrest in human HCT-116 cells assessed as increase in accumulation of cells at G0/G1 phase at 10 uM by propidium iodide staining based flow cytometry; format: functional; conditions: time 6-24 hrs, TDE = time-dependent effect
Histone deacetylase 1 = Histone deacetylase 1 (Homo sapiens, UniProt Q13547); experiment: Inhibition of recombinant human full-length C-terminal Flag-His6-tagged HDAC1 (1 to 482 residues) expressed in Sf9 insect cells using fluorogenic HDAC substrate measured after 30 mins by fluorimetry
Histone deacetylase 1, sequence (Q13547 whole entry, the tested form may be a part): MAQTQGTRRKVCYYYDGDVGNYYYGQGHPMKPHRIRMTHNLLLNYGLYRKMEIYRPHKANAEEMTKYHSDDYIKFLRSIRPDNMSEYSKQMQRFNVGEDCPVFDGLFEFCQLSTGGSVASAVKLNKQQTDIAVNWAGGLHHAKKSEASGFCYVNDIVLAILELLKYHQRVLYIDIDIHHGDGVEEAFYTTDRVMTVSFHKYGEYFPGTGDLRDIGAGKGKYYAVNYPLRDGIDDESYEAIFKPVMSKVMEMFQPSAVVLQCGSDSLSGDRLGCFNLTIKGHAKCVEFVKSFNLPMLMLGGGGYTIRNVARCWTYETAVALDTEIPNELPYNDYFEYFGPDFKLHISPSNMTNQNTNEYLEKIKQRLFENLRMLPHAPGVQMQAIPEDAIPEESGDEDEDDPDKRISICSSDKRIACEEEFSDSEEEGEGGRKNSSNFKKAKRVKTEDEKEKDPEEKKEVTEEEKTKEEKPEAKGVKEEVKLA

HCT-116 [9] = experiment: Cell cycle arrest in human HCT-116 cells assessed as accumulation of cells at G2/M phase at 0.1 uM measured after 24 hrs by propidium iodide staining based flow cytometry (reference value: 22.74%); format: functional
HCT-116 [10] = experiment: Cell cycle arrest in human HCT-116 cells assessed as increase in accumulation of cells at G0/G1 phase measured after 24 hrs by propidium iodide staining based flow cytometry; format: functional; conditions: dose 0.1-10 µM, DDE = dose-dependent effect
HCT-116 [11] = experiment: Induction of cell morphological changes in human HCT-116 cells assessed as nuclear fragmentation at 0.5 to 5 uM measured after 24 hrs by Hoechst 33258 staining based fluorescence microscopy; format: functional; conditions: dose 0.5-5 µM
HCT-116 [12] = experiment: Cell cycle arrest in human HCT-116 cells assessed as accumulation of cells at G2/M phase at 1 uM measured after 24 hrs by propidium iodide staining based flow cytometry (reference value: 22.74%); format: functional
[13] = target: T1, Histone deacetylase 1/2/3 (Homo sapiens); experiment: Inhibition of HDAC1/HDAC2/HDAC3 in human HCT-116 cells assessed as increase in accumulation of acetylated H3K9 measured after 24 hrs by Western blot analysis; format: cell-based; conditions: dose 0.1-10 µM, DDE = dose-dependent effect
HCT-116 [14] = experiment: Cell cycle arrest in human HCT-116 cells assessed as accumulation of cells at G0/G1 phase at 0.5 uM measured after 24 hrs by propidium iodide staining based flow cytometry (reference value: 58.05%); format: functional
[15] = Intrinsic clearance in rat liver microsomes assessed per mg protein at 13.8 uM by HPLC analysis; format: ADME, Microsome
HCT-116 [16] = experiment: Cell cycle arrest in human HCT-116 cells assessed as accumulation of cells at G2/M phase at 0.5 uM measured after 24 hrs by propidium iodide staining based flow cytometry (reference value: 22.74%); format: functional
[17] = Intrinsic clearance in human liver microsomes assessed per mg protein at 13.8 uM by HPLC analysis; format: ADME, Microsome
HCT-116 [18] = experiment: Cell cycle arrest in human HCT-116 cells assessed as down regulation of CDK2 expression at 5 uM by Western blot analysis; format: functional, cell-based; conditions: time 6-48 hrs, TDE = time-dependent effect
HCT-116 [19] = experiment: Cell cycle arrest in human HCT-116 cells assessed as accumulation of cells at G0/G1 phase at 10 uM measured after 24 hrs by propidium iodide staining based flow cytometry (reference value: 58.05%); format: functional
HCT-116 [20] = experiment: Induction of apoptosis in human HCT-116 cells assessed as viable cells at 1 uM measured after 24 hrs by Annexin V-FITC/propidium iodide staining based flow cytometry (reference value: 87.3%); format: functional; conditions: read-out: Activity
HCT-116 [21] = experiment: Induction of apoptosis in human HCT-116 cells assessed as necrotic cells at 1 uM measured after 24 hrs by Annexin V-FITC/propidium iodide staining based flow cytometry (reference value: 7.39%); format: functional

half-life at 13.8 µM [5]: 1.2 h
inhibition [6]: Dde
half-life at 13.8 µM [7]: 4.62 h
IC50 (Histone deacetylase 1): 0.0551 µM
inhibition [13]: Dde
CLint [15]: 9.6 µL/min/mg
CLint [17]: 2.5 µL/min/mg
Structure (SMILES): CCCCNc1nc(Cl)nc2c1ncn2Cc1ccc(C(=O)Nc2ccccc2N)cc1
Activity (HCT-116 [1]): 18.82%
Activity (HCT-116 [2]): 0.442%
Activity (HCT-116 [3]): Active
Activity (HCT-116 [4]): Tde
Activity (HCT-116 [8]): Tde
Activity (HCT-116 [9]): 23.95%
Activity (HCT-116 [10]): Dde
Activity (HCT-116 [11]): Active
Activity (HCT-116 [12]): 15.43%
Activity (HCT-116 [14]): 64.42%
Activity (HCT-116 [16]): 20.23%
Activity (HCT-116 [18]): Tde
Activity (HCT-116 [19]): 73.05%
viability at 1 µM (HCT-116 [20]): 40.4%
Activity (HCT-116 [21]): 1.2%
